Test results from patent US20210198277A1, “AMINE-SUBSTITUTED ARYL OR HETEROARYL COMPOUNDS” (Epizyme, Inc., priority 2016, published 2021).

Biological target: T1, EHMT2 (Homo sapiens, UniProt Q96KQ7)
T1 construct: host or cells: MDA-MB-231
T1 sequence (Q96KQ7 1-1210): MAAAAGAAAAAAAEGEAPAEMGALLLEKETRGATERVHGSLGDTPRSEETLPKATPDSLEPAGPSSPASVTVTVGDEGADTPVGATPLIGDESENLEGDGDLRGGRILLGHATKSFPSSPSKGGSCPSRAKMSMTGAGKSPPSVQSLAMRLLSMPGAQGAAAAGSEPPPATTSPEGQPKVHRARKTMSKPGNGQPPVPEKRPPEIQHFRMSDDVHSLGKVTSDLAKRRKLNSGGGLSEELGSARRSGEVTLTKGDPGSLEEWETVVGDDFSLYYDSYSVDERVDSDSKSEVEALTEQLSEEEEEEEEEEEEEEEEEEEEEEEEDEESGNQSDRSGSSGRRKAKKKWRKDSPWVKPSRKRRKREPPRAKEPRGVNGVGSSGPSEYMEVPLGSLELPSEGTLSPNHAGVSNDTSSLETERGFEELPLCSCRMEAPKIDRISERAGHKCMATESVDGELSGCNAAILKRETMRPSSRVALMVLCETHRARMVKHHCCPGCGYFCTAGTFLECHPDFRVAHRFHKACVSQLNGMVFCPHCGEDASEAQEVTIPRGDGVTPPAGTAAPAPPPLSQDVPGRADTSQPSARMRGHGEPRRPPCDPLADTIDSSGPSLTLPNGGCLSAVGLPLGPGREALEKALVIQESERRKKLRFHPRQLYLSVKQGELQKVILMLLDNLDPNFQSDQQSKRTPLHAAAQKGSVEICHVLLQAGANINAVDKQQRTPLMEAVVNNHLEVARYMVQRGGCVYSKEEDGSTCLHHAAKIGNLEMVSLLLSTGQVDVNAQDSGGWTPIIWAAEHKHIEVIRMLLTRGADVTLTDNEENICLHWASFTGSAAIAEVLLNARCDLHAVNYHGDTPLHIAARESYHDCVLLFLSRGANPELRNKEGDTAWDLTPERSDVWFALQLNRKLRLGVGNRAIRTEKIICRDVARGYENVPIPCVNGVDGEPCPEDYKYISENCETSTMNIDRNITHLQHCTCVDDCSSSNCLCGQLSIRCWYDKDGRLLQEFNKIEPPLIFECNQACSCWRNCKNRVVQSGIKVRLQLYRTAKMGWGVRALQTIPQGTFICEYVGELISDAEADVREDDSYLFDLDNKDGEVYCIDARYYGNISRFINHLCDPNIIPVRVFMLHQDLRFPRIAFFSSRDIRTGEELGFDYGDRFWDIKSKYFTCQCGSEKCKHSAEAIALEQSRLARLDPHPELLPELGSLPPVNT
Experiment: MDA-MB-231 H3K9me2 in-cell Western assay (EHMT2 ICW)
Assay type: cell-based
Conditions: H3K9me2 in-cell Western, MDA-MB-231 cells; read-out: EHMT2 ICW (IC50 μM)
Outline: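 Infrared read-out at 800 and 700 nm (H3K9me2 antibody vs DRAQ5 DNA stain) of fixed MDA-MB-231 cells after 48 h compound treatment at 37 °C. Well ratios were converted to percent inhibition, and IC50 was obtained by variable-slope nonlinear regression on triplicates.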

SMILES | IC50 [µM]
CNc1ccnc(Nc2cc(OCCCN3CCCC3)c3cn[nH]c3c2)n1 [Compound 538, N^4-methyl-N^2-(4-(3-(pyrrolidin-1-yl)propoxy)-1H-indazol-6-yl)pyrimidine-2,4-diamine] | > 10
CNc1ccnc(Nc2cc(OCCCN3CCCC3)c3[nH]ncc3c2)n1 [Compound 539] | > 10
CNc1ccnc(NC2CCCNC2)n1 (stereo not drawn) [Compound 541, N^4-methyl-N^2-(piperidin-3-yl)pyrimidine-2,4-diamine] | > 10
CNc1ccnc(NC2CCNCC2)n1 [Compound 542, N^4-methyl-N^2-(piperidin-4-yl)pyrimidine-2,4-diamine] | > 10
CCCC1(Nc2nccc(NC)n2)CCCNC1 (stereo not drawn) [Compound 544] | > 10
CCCC1(Nc2nccc(NC)n2)CCNCC1 [Compound 545] | > 10
CNc1ccnc(NC2(C)CCCNC2)n1 (stereo not drawn) [Compound 546, N^4-methyl-N^2-(3-methylpiperidin-3-yl)pyrimidine-2,4-diamine] | > 10
CNc1ccnc(NC2(C)CCNCC2)n1 [Compound 547, N^4-methyl-N^2-(4-methylpiperidin-4-yl)pyrimidine-2,4-diamine] | > 10
CNc1ccnc(N[C@@H]2CC[C@H](N)C2)n1 [Compound 548, N^2-((1R,3S)-3-aminocyclopentyl)-N^4-methylpyrimidine-2,4-diamine] | > 10
CCCCN1CCCC(C)(Nc2nccc(NC)n2)C1 (stereo not drawn) [Compound 549, N^2-(1-butyl-3-methylpiperidin-3-yl)-N^4-methylpyrimidine-2,4-diamine] | > 10
CCCCN1CCC(C)(Nc2nccc(NC)n2)CC1 [Compound 550, N^2-(1-butyl-4-methylpiperidin-4-yl)-N^4-methylpyrimidine-2,4-diamine] | > 10
c1nc(NC2CCNCC2)ncc1OCCCN1CCCC1 [Compound 552] | > 10
CN1CCC(COc2cnc(NCC3CCOCC3)nc2)C1 (stereo not drawn) [Compound 553] | > 10
CN1CCC(COc2ccc(NC3CCNCC3)nc2)C1 (stereo not drawn) [Compound 554] | > 10
CN1CCC(COc2cnc(NC3CCNCC3)nc2)C1 (stereo not drawn) [Compound 555] | > 10
c1nc(NC2CCNCC2)ncc1OCC1CCN(C2CC2)C1 (stereo not drawn) [Compound 556] | > 10
c1nc(NC2CCOCC2)ncc1OCC1CCN(C2CC2)C1 (stereo not drawn) [Compound 557] | > 10
CNc1cc(C)nc(Nc2ccc(OC)c(O)c2)n1 [Compound 561] | > 10
CCN1CC(COc2cc(Nc3nccc4[nH]ccc34)ncc2OC)C1 [Compound 564] | > 10
CCN1CC(COc2cc(Nc3cc(NC)ncc3F)ncc2OC)C1 [Compound 566] | > 10

SMILES | IC50 [µM]
CCN1CC(COc2cc(Nc3cc(NC)nc(C)c3F)ncc2OC)C1 [Compound 567] | > 10
COc1ccc(NC2CCNCC2)cc1OCCCN1CCCC1 [Compound 572] | > 10
COc1ccc(NC2CCCNC2)cc1OCCCN1CCCC1 (stereo not drawn) [Compound 573] | > 10
CNc1cc(C)nc(Nc2ccc(OC)c(OCCCN3CC4(CC4)C3)c2)n1 [Compound 574] | > 10
CNc1cc(C)nc(Nc2ccc(OC)c(OCC3CN(C4CCCC4)C3)c2)n1 [Compound 577] | > 10
COc1cc(NC2CCCNC2)ccc1OCCCN1CCCC1 (stereo not drawn) [Compound 578] | > 10
COc1cc(NC2CCNCC2)ccc1OCCCN1CCCC1 [Compound 579] | > 10
CNc1cc(C)nc(Nc2ccc(OC)c(OCC3CN(C4CCOC4)C3)c2)n1 (stereo not drawn) [Compound 580] | > 10
COc1cnc(Nc2cccc3[nH]ncc23)cc1OCCCN1CCCC1 [Compound 581] | > 10
COc1ccc(Nc2nccc3[nH]ncc23)cc1OCCCN1CCCC1 [Compound 582] | > 10
COc1cnc(Nc2ccnc3[nH]ncc23)cc1OCCCN1CCCC1 [Compound 583] | > 10
CCN1CC(COc2cc(Nc3cccc4nncn34)ncc2OC)C1 [Compound 584] | > 10
COc1cnc(Nc2cccc3nccn23)cc1OCCCN1CCCC1 [Compound 585] | 1 to 10
COc1cnc(Nc2cccn3ccnc23)cc1OCCCN1CCCC1 [Compound 586] | > 10
CC(C)N1CC(COc2cnc(NC3CCNCC3)nc2)C1 [Compound 588] | > 10
COc1cnc(Nc2cccc3cncn23)cc1OCCCN1CCCC1 [Compound 589] | > 10
COc1cnc(Nc2cc(C)nc3[nH]ncc23)cc1OCCCN1CCCC1 [Compound 596] | > 10
C/C=C/C(=O)Nc1cc(OCCCN2CCCC2)c(OC)cn1 [Compound 597] | > 10
C/C=C/C(=O)Nc1ccc(OC)c(OCCCN2CCCC2)c1 [Compound 598] | > 10

Other lines, results leading:

IC50 [µM] | SMILES
0.1 to 1 | CNc1cc(C)nc(Nc2ccc(OC)c(OCCCN(C)C3CCC3)c2)n1 [Compound 551, N^2-(3-(3-(cyclobutyl(methyl)amino)propoxy)-4-methoxyphenyl)-N^4,6-dimethylpyrimidine-2,4-diamine]
0.1 to 1 | CNc1cc(C)nc(Nc2cnc(OC)c(OC[C@H]3CCN(C4CC4)C3)c2)n1 [Compound 558]
0.1 to 1 | CNc1cc(C)nc(Nc2ccc(OC)c(OCC3CN(C(C)C)C3)c2)n1 [Compound 559]
0.1 to 1 | CCN1CC(C(O)Oc2cc(Nc3nc(C)cc(NC)n3)ccc2OC)C1 (stereo not drawn) [Compound 560]
1 to 10 | CCN1CC(C(C#N)Oc2cc(Nc3nc(C)cc(NC)n3)ccc2OC)C1 (stereo not drawn) [Compound 562]
< 0.1 | CNc1cc(C)nc(Nc2ccc(OC)c(OC[C@@H]3CCN(C4CCC4)C3)c2)n1 [Compound 563]
1 to 10 | COc1cc(Nc2nc(C)cc3[nH]ncc23)ncc1OCCCN1CCCC1 [Compound 565]
0.1 to 1 | CNc1cc(C)nc(Nc2ccc(OC)c(OC[C@@H]3CCN(C4(C)CC4)C3)c2)n1 [Compound 568]
0.1 to 1 | CCN1CC(COc2cc(Nc3cc(NC)cc(C)n3)cnc2OC)C1 [Compound 569]
0.1 to 1 | CCN1CC[C@@H](COc2cc(Nc3nc(C)cc(NC)n3)ccc2OC)C1 [Compound 571]
1 to 10 | CNc1cc(C)nc(Nc2ccc(OC)c(OCC3CN(C(C)C)C3)c2)n1 [Compound 575]
0.1 to 1 | CNc1cc(C)nc(Nc2ccc(OC)c(OCC3CN(C4CCC4)C3)c2)n1 [Compound 576]
0.1 to 1 | COc1cc2c(C3CCN(C)CC3)nc(N(C)C)nc2cc1OCCCN1CCCC1 [Compound 587]
0.1 to 1 | COc1ccc(Nc2nc(C)cc(NCC3CCOCC3)n2)cc1OCCCN1CCCC1 [Compound 590]
0.1 to 1 | COc1ncc(Nc2nc(C)cc(NCC3CCOCC3)n2)cc1OCCCN1CCCC1 [Compound 591]
0.1 to 1 | COc1ncc(Nc2nc(C)cc(NCC3CCOCC3)n2)cc1OC[C@@H]1CCN(C(C)C)C1 [Compound 592]
0.1 to 1 | COc1ncc(Nc2nc(C)cc(NC(C)C)n2)cc1OCCCN1CCCC1 [Compound 593]
0.1 to 1 | COc1ncc(Nc2nc(C)cc(NCC3CCOCC3)n2)cc1OC[C@@H]1CCN(C2CCC2)C1 [Compound 594]
0.1 to 1 | COc1ncc(Nc2nc(C)cc(NCC3CCOCC3)n2)cc1OC[C@@H]1CCN(C2CCC2)C1 [Compound 595]
0.1 to 1 | CCN1CC[C@@H](COc2cc(Nc3nc(C)cc(NC)n3)cnc2OC)C1 [Compound 599]
< 0.1 | CNc1cc(C)nc(Nc2ccc(OC)c(OC[C@@H]3CCNC3)c2)n1 [Compound 600]
0.1 to 1 | CCc1cc(NC)nc(Nc2cnc(OC)c(OC[C@@H]3CCN(CC)C3)c2)n1 [Compound 601]
0.1 to 1 | CCN1CC[C@@H](COc2cc(Nc3nc(C)cc(NC(C)C)n3)ccc2OC)C1 [Compound 602]
0.1 to 1 | COc1ccc(Nc2nc(C)cc(NC(C)C)n2)cc1OCCCN1CCCC1 [Compound 603]
